US9328129B2, “Peptidomimetic inhibitors of PSMA” (Washington State University, priority 2010, dated 2016)

Columns and labels:
LNCaP (PSMA+) cells [1] = experiment: Extent of internalization of the 99mTc-labeled probe; format: cell-based
Description: (§1) Both LNCaP (PSMA+) and PC3 (PSMA−) cells were treated with DTPA-SCN-CTT-54 labeled with pertechnetate (^99mTcO4^−) reduced with SnCl2. At increasing time points at 37° C., cells were washed free of the probe and uptake was determined as a percentage of the total amount of probe applied.

LNCaP (PSMA+) cells [2] = experiment: Uptake of 99mTc-labeled DTPA-SCN-CTT-54 by cells, as percentage of total probe applied; format: cell-based
Description: as §1

[3] = tested on: LNCaP PSMA+ tumor xenografts; experiment: Biodistribution of the 99mTc-labeled probe in mice bearing LNCaP and PC3 tumor xenografts; format: in vivo, mouse; conditions: LNCaP PSMA+ tumor xenograft, 4 hours following tail-vein injection
Description: Both PSMA+ (LNCaP) and PSMA− (PC3) tumor xenografts were implanted in opposite rear flanks of each mouse. Thus, each mouse served as both a positive and negative control.

PSMA = target: T1, PSMA (Homo sapiens, UniProt Q04609); experiment: Competitive binding experiments: preincubation with unlabeled CTT-54 before the radiolabeled probe; format: cell-based; conditions: 0 nM CTT-54, probe 2 hours
T1 construct: endogenous in cells; host or cells: LNCaP
T1 sequence (Q04609 whole entry): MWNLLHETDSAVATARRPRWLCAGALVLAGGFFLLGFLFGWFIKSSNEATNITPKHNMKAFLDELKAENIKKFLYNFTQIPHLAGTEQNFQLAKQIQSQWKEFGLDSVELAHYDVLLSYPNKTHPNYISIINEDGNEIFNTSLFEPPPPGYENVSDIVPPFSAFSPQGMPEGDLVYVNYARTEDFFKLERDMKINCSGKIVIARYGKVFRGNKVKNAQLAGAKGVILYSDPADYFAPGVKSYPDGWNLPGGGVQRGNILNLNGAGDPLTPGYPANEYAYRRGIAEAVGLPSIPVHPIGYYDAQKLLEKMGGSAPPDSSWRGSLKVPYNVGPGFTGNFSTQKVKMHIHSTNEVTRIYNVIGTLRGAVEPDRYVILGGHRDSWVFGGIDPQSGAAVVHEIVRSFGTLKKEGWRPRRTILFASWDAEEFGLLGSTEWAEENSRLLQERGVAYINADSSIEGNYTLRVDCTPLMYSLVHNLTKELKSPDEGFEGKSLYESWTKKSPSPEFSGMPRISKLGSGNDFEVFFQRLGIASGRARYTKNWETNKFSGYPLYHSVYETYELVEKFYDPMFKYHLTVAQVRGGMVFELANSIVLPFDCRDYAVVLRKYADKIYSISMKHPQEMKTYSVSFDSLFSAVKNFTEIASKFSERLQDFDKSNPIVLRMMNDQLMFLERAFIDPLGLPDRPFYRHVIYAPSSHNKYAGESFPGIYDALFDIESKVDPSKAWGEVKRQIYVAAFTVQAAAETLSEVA

| SMILES | % internalization (LNCaP (PSMA+) cells [1]; 30 min) | % internalization (LNCaP (PSMA+) cells [1]; 2 hr) | % internalization (LNCaP (PSMA+) cells [1]; 4 hr) | extent of internalization of the probe (LNCaP (PSMA+) cells [1]; preliminary studies) | internalization (LNCaP (PSMA+) cells [1]; within 30 min) | time for binding to the cell surface (LNCaP (PSMA+) cells [2]) | % uptake (LNCaP (PSMA+) cells [2]; 30 min) | % uptake (LNCaP (PSMA+) cells [2]; 2 hr) | % uptake (LNCaP (PSMA+) cells [2]; 4 hr) | uptake (LNCaP versus PC3 cells) (LNCaP (PSMA+) cells [2]; labeled with pertechnetate (99mTcO4−) reduced with SnCl2, increasing time points at 37° C.) | uptake in tumor xenografts (biodistribution) [3] | % Uptake of the radiolabeled probe without competitor (PSMA) |
| --- | --- | --- | --- | --- | --- | --- | --- | --- | --- | --- | --- | --- |
| O=C(O)CC[C@H](NP(=O)(O)OC[C@H](NC(=O)CC[C@H](NC(=S)Nc1ccc(CC(CN(CCN(CC(=O)O)CC(=O)O)CC(=O)O)N(CC(=O)O)CC(=O)O)cc1)C(=O)O)C(=O)O)C(=O)O (stereo partly drawn) (99mTc complex, metal not drawn) [DTPA-SCN-CTT-54, N-{[(4-{2-[bis(carboxymethyl)amino]-3-[{2-[bis(carboxymethyl)amino]ethyl} (carboxymethyl)amino]propyl}phenyl)amino]carbonothioyl}-L-γ-glutamyl-O-[{[(1S)-1,3-dicarboxypropyl]amino} (hydroxy)phosphoryl]-L-serine] | 71.9% | 71.0% | 79.5% | greater than 80% | greater than 70% | ≤ 30 min | 2.30% | 2.94% | 2.34% | exclusive for LNCaP cells | substantial uptake | – |
| O=C(O)CC[C@H](NP(=O)(O)OC[C@H](NC(=O)CC[C@H](NC(=S)Nc1ccc(CC(CN(CCN(CC(=O)O)CC(=O)O)CC(=O)O)N(CC(=O)O)CC(=O)O)cc1)C(=O)O)C(=O)O)C(=O)O (stereo partly drawn) [DTPA-SCN-CTT-54, N-{[(4-{2-[bis(carboxymethyl)amino]-3-[{2-[bis(carboxymethyl)amino]ethyl} (carboxymethyl)amino]propyl}phenyl)amino]carbonothioyl}-L-γ-glutamyl-O-[{[(1S)-1,3-dicarboxypropyl]amino} (hydroxy)phosphoryl]-L-serine] | – | – | – | – | – | – | – | – | – | – | – | 4.46% |
